Three compounds from article PMC5209314, “Purification and characterization of a novel glutamate dehydrogenase from Geotrichum candidum with higher alcohol and amino acid activity” (AMB Express, 2017) can be followed below.

Holding throughout (assay type): biochemical
The target in experiment [1] is T1, glutamate dehydrogenase (GDH) from Geotrichum candidum S12 (Geotrichum candidum, UniProt A0A023RBK5).
T1 construct: identified by PMF similarity to Yaliof17820p (Yarrowia homologue)
Kind of experiment: activity towards hexanol, GC. As to conditions: 0.3 mmol/L NAD+, 9.8 mmol/L hexanol, pH 4.0, 30 °C.

For experiment [2], the target named is T1, glutamate dehydrogenase (GDH) from Geotrichum candidum S12. Kind of experiment: residual activity towards hexanol, GC. Particulars: read-out: Relative activity (%)^a. The source says:
residual activity towards hexanol, GC on glutamate dehydrogenase (GDH) from Geotrichum candidum S12

Experiment [3] has the same target. Kind of experiment: activity towards hexanol, GC. Particulars: read-out: Relative activity (%)^a. The source says: activity towards hexanol, GC on glutamate dehydrogenase (GDH) from Geotrichum candidum S12

T1 sequence (A0A023RBK5 1-452): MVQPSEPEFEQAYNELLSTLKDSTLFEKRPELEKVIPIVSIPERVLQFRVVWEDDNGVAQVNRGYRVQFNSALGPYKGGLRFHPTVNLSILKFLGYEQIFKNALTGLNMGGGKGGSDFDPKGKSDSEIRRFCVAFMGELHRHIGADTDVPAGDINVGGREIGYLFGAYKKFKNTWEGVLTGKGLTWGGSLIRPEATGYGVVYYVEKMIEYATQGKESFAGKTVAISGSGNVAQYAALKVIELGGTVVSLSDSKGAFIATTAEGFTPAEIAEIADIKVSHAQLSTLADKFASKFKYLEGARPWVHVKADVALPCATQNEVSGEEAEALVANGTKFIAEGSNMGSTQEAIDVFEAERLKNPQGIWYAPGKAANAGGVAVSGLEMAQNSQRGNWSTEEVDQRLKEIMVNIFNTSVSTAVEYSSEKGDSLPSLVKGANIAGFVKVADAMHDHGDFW

For the compound `NC(=O)c1ccc[n+]([C@@H]2O[C@H](COP(=O)(O)OP(=O)(O)OC[C@H]3O[C@@H](n4cnc5c(N)ncnc54)[C@H](O)[C@@H]3O)[C@@H](O)[C@H]2O)c1` [NAD^+], the “activity towards hexanol, GC” value in experiment [1] is “the enzyme could use NADP^+ and NAD^+ as a hydrogen acceptor of hexanol”.
On to `Nc1ncnc2c1ncn2[C@@H]1O[C@H](COP(=O)(O)OP(=O)(O)OP(=O)(O)O)[C@@H](O)[C@H]1O` [ATP], for which the activity at 1000 µM in experiment [2] came to 14.3 ± 0.84%.
In the case of `Nc1ncnc2c1ncn2[C@@H]1O[C@H](COP(=O)(O)OP(=O)(O)O)[C@@H](O)[C@H]1O` [ADP], in experiment [3], the activity at 1000 µM came out at 138 ± 3.72%.
